Results from patent US6541631B1, “Methods of separating FTC isomers and derivatives thereof” (Pharma-Eco Laboratories, Inc., priority 1999, dated 2003).

Test: Solubility of cis-FTC Ester and cis-FTC Alcohol in various solvent systems
Format: physicochemical
Procedure: Therefore, the solubility of the FTC ester in several solvent systems was determined.
Therefore, the solubility of the cis-FTC Alcohol in several solvent systems was determined.

Compound: Nc1nc(=O)n([C@@H]2CS[C@H](CO)O2)cc1F (relative stereo) [cis-FTC Alcohol, cis-5-fluoro-1-{2-(hydroxymethyl)-1,3-oxathiolan-5-yl}cytosine]
- Solubility (100% acetonitrile, RT): 0.38%
- Solubility (100% ethanol, RT): 0.51%
- Solubility (100% isopropyl alcohol, RT): 0.38%
- Solubility (100% methanol, 40-45° C.): 3.21%
- Solubility (100% methanol, RT): 0.77%
- Solubility (100% water, RT): 0.37%

Compound: CCCC(=O)OC[C@@H]1O[C@H](n2cc(F)c(N)nc2=O)CS1 (relative stereo) [cis-FTC Ester, cis-{5-(4-amino-5-fluoro-2-oxo-1(2H)-pyrimidinyl)-1,3-oxathiolan-2-yl}methyl butanoate]
- Solubility (20% isopropyl alcohol/80% water, 40-45° C.): 3.59%
- Solubility (50% ethanol/50% methanol, 20° C.): 9.03%
- Solubility (70% water/30% 2-propanol, 20° C.): 2.40%
- Solubility (70% water/30% 2-propanol, 35° C.): 5.39%
- Solubility (74.6% water/13.99% 2-propanol/11.41% butanol, 20° C.): 3.16%
- Solubility (74.6% water/13.99% 2-propanol/11.41% butanol, 35° C.): 10.5%
- Solubility (80% water/5.5% 2-propanol/14.5% butanol, 20° C.): 2.55%
- Solubility (80% water/10% 2-propanol/10% butanol, 20° C.): 2.27%
- Solubility (80% water/10% 2-propanol/10% butanol, 35° C.): 5.94%
- Solubility (80% water/15% 2-propanol/5% butanol, 20° C.): 2.57%
- Solubility (80% water/15% 2-propanol/5% tetrahydrofuran, 20° C.): 0.89%
- Solubility (80% water/20% 2-butanol, 20° C.): 3.00%
- Solubility (80% water/20% 2-propanol, 20° C.): 1.60%
- Solubility (80% water/20% 2-propanol, 35° C.): 3.80%
- Solubility (80% water/20% ethanol, 20° C.): 0.52%
- Solubility (80% water/20% methanol, 20° C.): 0.81%
- Solubility (80% water/20% tetrahydrofuran, 20° C.): 1.80%
- Solubility (85% water/10% 2-propanol/5% tetrahydrofuran, 20° C.): 0.64%
- Solubility (85% water/15% 2-propanol, 35° C.): 0.70%
- Solubility (85% water/15% dimethylformamide, 20° C.): 1.24%
- Solubility (90% water/10% dimethylformamide, 20° C.): 1.13%
- Solubility (95% water/5% dimethylformamide, 20° C.): 0.47%
- Solubility (100% 2-propanol, 35° C.): 2.68%
- Solubility (100% acetonitrile, 40-45 C): 3.85%
- Solubility (100% acetonitrile, 50° C.): 6.20%
- Solubility (100% acetonitrile, RT): 1.41%
- Solubility (100% ethanol, 20° C.): 4.36%
- Solubility (100% ethanol, RT, 40-45 C): 1.28%
- Solubility (100% ethyl acetate, 20° C.): 3.03%??
- Solubility (100% isopropyl alcohol, RT, 40-45° C.): 0.38%
- Solubility (100% methanol, 20° C.): 11.73%
